The values below are quoted from earlier work in patent US20240139231A1, “METFORMIN COMPOSITIONS AND METHODS FOR TREATMENT OF DIABETES” (priority 2018, published 2024).

[1] abbreviates: 500 mg/day co-administered with metformin, 12 weeks.

As to `CN(C)C(=N)NC(=N)N` [metformin, Metformin], in the series with blood glucose levels (depending on the dose), the “time to maximum effect” value is “within four to five days”. In addition, in the series with blood glucose levels (in vivo), the “low threshold dose at which effects on blood glucose levels become significant” value is on record as 1,500 mg/day and the “time until effects begin to appear after the user starts taking the medication” value was ≤ 48 h.
As to `O=C1O[C@H]([C@@H](O)CO)C(O)=C1O` [ascorbic acid], in the series on type 2 diabetes mellitus (setting [1]), the “reduction of blood sugar levels, HbA1c measure, relative to metformin in combination with a placebo” value was 1.5%; the “reduction of blood sugar levels, fasting measure, relative to metformin in combination with a placebo” value is on record as 7%; the “reduction of blood sugar levels, post-prandial measure, relative to metformin in combination with a placebo” value is given as “ca. 3%”. Also, the “effect on blood sugar when co-administered in lower amounts” value with type 2 diabetes mellitus (lower amounts, earlier reports by others) is reported as “no effect”.
